In data set [1] the target is Muscarinic acetylcholine receptor M5 (Rattus norvegicus, UniProt P08911). Description: Positive allosteric modulation of rat muscarinic M5 receptor assessed as acetylcholine response.
In data set [2] the target is T1, Muscarinic acetylcholine receptor M4 (Rattus norvegicus, UniProt P08485).
T1 sequence (P08485 whole entry): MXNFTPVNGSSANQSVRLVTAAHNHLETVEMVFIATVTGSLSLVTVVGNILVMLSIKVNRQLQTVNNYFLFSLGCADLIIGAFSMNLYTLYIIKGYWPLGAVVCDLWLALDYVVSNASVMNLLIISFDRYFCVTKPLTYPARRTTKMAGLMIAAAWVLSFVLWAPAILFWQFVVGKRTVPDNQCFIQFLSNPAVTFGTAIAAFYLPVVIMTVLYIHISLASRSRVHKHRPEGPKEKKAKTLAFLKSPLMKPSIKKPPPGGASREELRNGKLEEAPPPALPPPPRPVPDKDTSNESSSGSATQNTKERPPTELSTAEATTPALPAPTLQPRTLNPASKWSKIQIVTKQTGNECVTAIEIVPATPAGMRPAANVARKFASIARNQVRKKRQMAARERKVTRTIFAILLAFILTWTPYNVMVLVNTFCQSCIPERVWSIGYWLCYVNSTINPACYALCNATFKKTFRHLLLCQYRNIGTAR
Description: Positive allosteric modulation of rat muscarinic M4 receptor assessed as acetylcholine response.

The target in data set [3] is T2, Muscarinic acetylcholine receptor M4 (Homo sapiens, UniProt P08173).
T2 sequence (P08173 whole entry): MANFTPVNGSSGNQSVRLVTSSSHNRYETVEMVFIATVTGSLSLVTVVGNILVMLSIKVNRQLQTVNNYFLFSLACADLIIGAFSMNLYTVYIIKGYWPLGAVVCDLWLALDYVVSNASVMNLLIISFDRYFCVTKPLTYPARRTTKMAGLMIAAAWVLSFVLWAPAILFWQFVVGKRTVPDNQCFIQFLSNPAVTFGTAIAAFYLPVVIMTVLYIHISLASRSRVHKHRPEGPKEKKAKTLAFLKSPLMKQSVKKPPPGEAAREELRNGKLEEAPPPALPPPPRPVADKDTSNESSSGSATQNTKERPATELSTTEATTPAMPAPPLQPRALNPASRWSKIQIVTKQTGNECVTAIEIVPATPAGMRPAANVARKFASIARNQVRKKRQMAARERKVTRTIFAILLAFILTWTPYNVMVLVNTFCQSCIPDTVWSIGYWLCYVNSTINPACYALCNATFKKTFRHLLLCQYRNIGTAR
Description: Positive allosteric modulation of human muscarinic M4 receptor expressed in CHO-K1 cells assessed as leftward shift in acetylcholine response treated for 144 secs prior to acetylcholine addition measured for 5 mins by Fluo-4-AM based calcium mobilization assay. The class given is functional, cell-based. Conditions: read-out: EC50.

In data set [4] the target is Muscarinic acetylcholine receptor M2 (Rattus norvegicus) (UniProt P10980). Description: Positive allosteric modulation of rat muscarinic M2 receptor assessed as acetylcholine response relative to control.
Muscarinic acetylcholine receptor M2 (Rattus norvegicus), sequence (P10980 whole entry): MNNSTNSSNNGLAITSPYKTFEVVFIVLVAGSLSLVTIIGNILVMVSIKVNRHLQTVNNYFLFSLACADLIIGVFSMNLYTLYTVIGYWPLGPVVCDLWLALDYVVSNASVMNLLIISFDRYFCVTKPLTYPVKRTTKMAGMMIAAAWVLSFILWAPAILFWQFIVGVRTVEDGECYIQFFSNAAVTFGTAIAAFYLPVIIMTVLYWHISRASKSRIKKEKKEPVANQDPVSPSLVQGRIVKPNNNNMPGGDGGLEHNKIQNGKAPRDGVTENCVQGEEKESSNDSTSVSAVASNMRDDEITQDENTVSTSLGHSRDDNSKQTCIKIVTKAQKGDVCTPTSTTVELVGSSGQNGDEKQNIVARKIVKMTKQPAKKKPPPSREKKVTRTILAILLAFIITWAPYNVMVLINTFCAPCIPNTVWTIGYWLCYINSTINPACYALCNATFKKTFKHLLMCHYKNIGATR
For data set [5], the target named is T3, Muscarinic acetylcholine receptor M4 (Homo sapiens) (UniProt P08173).
T3 sequence (whole entry): T2 sequence (P08173 whole entry)
Put plainly: Positive allosteric modulation of human muscarinic M4 receptor expressed in CHO-K1 cells assessed as leftward shift in acetylcholine response at 10 uM treated for 144 secs prior to acetylcholine addition measured for 5 mins by Fluo-4-AM based calcium mobilization assay relative to acetylcholine. The format is functional, cell-based.

The target in data set [6] is Muscarinic acetylcholine receptor M2 (Homo sapiens) (UniProt P08172). Description: Positive allosteric modulation of human muscarinic M2 receptor expressed in CHO-K1 cells assessed as leftward shift in acetylcholine response treated for 144 secs prior to acetylcholine addition measured for 5 mins by Fluo-4-AM based calcium mobilization assay relative to control. The format is functional, cell-based.
Muscarinic acetylcholine receptor M2 (Homo sapiens), sequence (P08172 whole entry): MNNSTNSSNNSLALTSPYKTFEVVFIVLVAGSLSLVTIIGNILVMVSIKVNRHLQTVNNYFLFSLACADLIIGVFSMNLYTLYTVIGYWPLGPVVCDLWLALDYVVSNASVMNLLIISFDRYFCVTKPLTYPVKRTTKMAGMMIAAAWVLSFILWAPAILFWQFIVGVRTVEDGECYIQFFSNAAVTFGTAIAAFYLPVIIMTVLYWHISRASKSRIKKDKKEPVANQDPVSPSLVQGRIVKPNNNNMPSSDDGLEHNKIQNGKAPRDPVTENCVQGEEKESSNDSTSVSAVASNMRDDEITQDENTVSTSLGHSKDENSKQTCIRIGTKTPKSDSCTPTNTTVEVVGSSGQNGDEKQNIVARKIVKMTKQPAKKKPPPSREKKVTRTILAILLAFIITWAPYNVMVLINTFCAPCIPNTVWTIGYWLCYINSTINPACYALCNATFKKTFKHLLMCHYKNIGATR

The target in data set [7] is Muscarinic acetylcholine receptor M1 (Homo sapiens, UniProt P11229). Put plainly: Positive allosteric modulation of human muscarinic M1 receptor expressed in CHO-K1 cells assessed as leftward shift in acetylcholine response treated for 144 secs prior to acetylcholine addition measured for 5 mins by Fluo-4-AM based calcium mobilization assay. The class given is functional, cell-based.
Muscarinic acetylcholine receptor M1 (Homo sapiens, UniProt P11229), sequence (P11229 whole entry): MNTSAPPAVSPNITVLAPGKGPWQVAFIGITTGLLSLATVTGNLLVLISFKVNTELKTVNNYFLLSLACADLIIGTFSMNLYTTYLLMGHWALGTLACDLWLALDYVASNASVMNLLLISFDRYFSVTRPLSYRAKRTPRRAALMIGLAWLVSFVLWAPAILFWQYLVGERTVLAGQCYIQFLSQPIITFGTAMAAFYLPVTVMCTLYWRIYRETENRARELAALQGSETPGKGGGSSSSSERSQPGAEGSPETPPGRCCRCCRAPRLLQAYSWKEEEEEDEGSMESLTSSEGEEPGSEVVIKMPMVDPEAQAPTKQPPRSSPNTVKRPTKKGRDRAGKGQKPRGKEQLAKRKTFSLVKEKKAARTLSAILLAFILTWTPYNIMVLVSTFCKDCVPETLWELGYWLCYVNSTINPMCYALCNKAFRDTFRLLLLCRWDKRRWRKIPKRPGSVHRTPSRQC

Data set [8] concerns the target Muscarinic acetylcholine receptor M1 (Homo sapiens) (UniProt P11229). Description: Positive allosteric modulation of human muscarinic M1 receptor expressed in CHO-K1 cells assessed as leftward shift in acetylcholine response treated for 144 secs prior to acetylcholine addition measured for 5 mins by Fluo-4-AM based calcium mobilization assay relative to control. The class given is functional, cell-based.

Data set [9] addresses Muscarinic acetylcholine receptor M4 (Rattus norvegicus) (UniProt P08485). Put plainly: Positive allosteric modulation of rat muscarinic M4 receptor assessed as acetylcholine response at 10 uM relative to acetylcholine.
The target in data set [10] is Muscarinic acetylcholine receptor M5 (Homo sapiens, UniProt P08912). Put plainly: Positive allosteric modulation of human muscarinic M5 receptor expressed in CHO-K1 cells assessed as leftward shift in acetylcholine response treated for 144 secs prior to acetylcholine addition measured for 5 mins by Fluo-4-AM based calcium mobilization assay. The class given is functional, cell-based.
Muscarinic acetylcholine receptor M5 (Homo sapiens, UniProt P08912), sequence (P08912 whole entry): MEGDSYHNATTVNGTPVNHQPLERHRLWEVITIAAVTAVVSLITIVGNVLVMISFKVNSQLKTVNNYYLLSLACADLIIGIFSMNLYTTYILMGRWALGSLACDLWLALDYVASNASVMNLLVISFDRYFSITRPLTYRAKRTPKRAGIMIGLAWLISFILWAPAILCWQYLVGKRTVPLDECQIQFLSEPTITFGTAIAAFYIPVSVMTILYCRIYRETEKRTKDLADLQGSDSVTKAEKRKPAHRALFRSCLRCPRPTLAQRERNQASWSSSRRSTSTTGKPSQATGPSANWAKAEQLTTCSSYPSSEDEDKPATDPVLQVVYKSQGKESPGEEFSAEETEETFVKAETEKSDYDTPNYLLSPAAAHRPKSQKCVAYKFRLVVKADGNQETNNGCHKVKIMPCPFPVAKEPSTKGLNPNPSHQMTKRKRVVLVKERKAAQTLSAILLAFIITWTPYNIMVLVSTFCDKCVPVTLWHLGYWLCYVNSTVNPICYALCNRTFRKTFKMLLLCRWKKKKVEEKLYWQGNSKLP

Data set [11] addresses Muscarinic acetylcholine receptor M3 (Homo sapiens, UniProt P20309). Description: Positive allosteric modulation of human muscarinic M3 receptor expressed in CHO-K1 cells assessed as leftward shift in acetylcholine response treated for 144 secs prior to acetylcholine addition measured for 5 mins by Fluo-4-AM based calcium mobilization assay. The class given is functional, cell-based.

The target in data set [12] is Muscarinic acetylcholine receptor M1 (Rattus norvegicus, UniProt P08482). Description: Positive allosteric modulation of rat muscarinic M1 receptor assessed as acetylcholine response.
Muscarinic acetylcholine receptor M1 (Rattus norvegicus, UniProt P08482), sequence (P08482 whole entry): as the sequence (P11229 whole entry) above, with A5V, T254S, P309S, R320K, A337G, I413V counted along it
For data set [13], the target named is Muscarinic acetylcholine receptor M1 (Rattus norvegicus) (UniProt P08482). Description: Positive allosteric modulation of rat muscarinic M1 receptor assessed as acetylcholine response relative to control.
Muscarinic acetylcholine receptor M1 (Rattus norvegicus), sequence (P08482 whole entry): as the sequence (P11229 whole entry) above, with A5V, T254S, P309S, R320K, A337G, I413V counted along it
Data set [14] deals with Plasma. Put plainly: Fraction unbound in human plasma. The class given is ADME, cell-free.
Data set [15] addresses T3, Muscarinic acetylcholine receptor M4 (Homo sapiens). Put plainly: Positive allosteric modulation of human muscarinic M4 receptor expressed in CHO-K1 cells assessed as leftward shift in acetylcholine response treated for 144 secs prior to acetylcholine addition measured for 5 mins by Fluo-4-AM based calcium mobilization assay relative to control. The class given is functional, cell-based.

Data set [16] has as its target Muscarinic acetylcholine receptor M2 (Rattus norvegicus, UniProt P10980). Description: Positive allosteric modulation of rat muscarinic M2 receptor assessed as acetylcholine response.
The target in data set [17] is Muscarinic acetylcholine receptor M2 (Homo sapiens, UniProt P08172). Description: Positive allosteric modulation of human muscarinic M2 receptor expressed in CHO-K1 cells assessed as leftward shift in acetylcholine response treated for 144 secs prior to acetylcholine addition measured for 5 mins by Fluo-4-AM based calcium mobilization assay. The format is functional, cell-based.
Muscarinic acetylcholine receptor M2 (Homo sapiens, UniProt P08172), sequence (P08172 whole entry): as the sequence (P08172 whole entry) above

Data set [18] concerns the target Muscarinic acetylcholine receptor M3 (Rattus norvegicus, UniProt P08483). Put plainly: Positive allosteric modulation of rat muscarinic M3 receptor assessed as acetylcholine response.
Data set [19] relates to Plasma. Description: Fraction unbound in rat plasma. The class given is ADME, cell-free.
Data set [20] relates to Rattus norvegicus. Description: Antipsychotic activity in Sprague-Dawley rat assessed as reversal of amphetamine-induced hyperlocomotion at 3 mg/kg, ip after 90 mins. The format is functional. Conditions: route intraperitoneal.
In data set [21] the test system is Rattus norvegicus. Put plainly: Antipsychotic activity in Sprague-Dawley rat assessed as reversal of amphetamine-induced hyperlocomotion at 30 mg/kg, ip after 90 mins. The format is functional. As to conditions: route intraperitoneal.
Data set [22] is described as follows: Volume of distribution at steady state in rat at 1 mg/kg, iv. The class given is ADME, organism-based. More on the design: dose 1 mg/kg, route intravenous. As to conditions: in vivo, read-out: Vdss.
Data set [23] is described as follows: Mean residence time in rat at 1 mg/kg, iv. The class given is ADME, organism-based. More on the design: dose 1 mg/kg, route intravenous. As to conditions: in vivo.
Data set [24] in a line: AUC in rat at 1 mg/kg, iv. As to conditions: plasma. The format is ADME, organism-based. More on the design: dose 1 mg/kg, route intravenous.
A short description of data set [25]: Clearance in rat at 1 mg/kg, iv. The format is ADME, organism-based. More on the design: dose 1 mg/kg, route intravenous. As to conditions: in vivo.
The next data set deals with Brain. Description: Drug level in rat brain at 10 mg/kg, ip up to 6 hrs. More on the design: dose 10 mg/kg, route intraperitoneal. The class given is ADME, organism-based. Conditions: in vivo.
The test system of data set [26] is Rattus norvegicus. Description: Antipsychotic activity in Sprague-Dawley rat assessed as reversal of amphetamine-induced hyperlocomotion at 56.6 mg/kg, ip after 90 mins. The format is functional. As to conditions: route intraperitoneal.
Data set [27] can be described thus: Half life in rat at 1 mg/kg, iv. The class given is ADME, organism-based. The arrangement: dose 1 mg/kg, route intravenous. Conditions: in vivo.
Data set [28] relates to Rattus norvegicus. Put plainly: Antipsychotic activity in Sprague-Dawley rat assessed as reversal of amphetamine-induced hyperlocomotion at 10 mg/kg, ip after 90 mins. The format is functional. Conditions: route intraperitoneal.
Data set [29] has as its target Sodium-dependent dopamine transporter (Homo sapiens) (UniProt Q01959). Description: Binding affinity to human DAT at 10 uM by radioligand binding assay.
Data set [30] in a line: Systemic plasma AUC in rat at 10 mg/kg, ip up to 6 hrs.
Data set [31] has as its system Rattus norvegicus. Put plainly: Antipsychotic activity in Sprague-Dawley rat assessed as reversal of amphetamine-induced hyperlocomotion at 100 mg/kg, ip after 90 mins. The format is functional. As to conditions: route intraperitoneal.
The subject of data set [32] is Rattus norvegicus. Put plainly: Antipsychotic activity in ip dosed Sprague-Dawley rat assessed as reversal of amphetamine-induced hyperlocomotion after 90 mins. The class given is functional, organism-based.
For data set [33], the species on record is Rattus norvegicus. Put plainly: Binding affinity to rat GABAA receptor at 10 uM by radioligand binding assay.

Muscarinic acetylcholine receptor M3 (Homo sapiens, UniProt P20309), sequence (P20309 whole entry): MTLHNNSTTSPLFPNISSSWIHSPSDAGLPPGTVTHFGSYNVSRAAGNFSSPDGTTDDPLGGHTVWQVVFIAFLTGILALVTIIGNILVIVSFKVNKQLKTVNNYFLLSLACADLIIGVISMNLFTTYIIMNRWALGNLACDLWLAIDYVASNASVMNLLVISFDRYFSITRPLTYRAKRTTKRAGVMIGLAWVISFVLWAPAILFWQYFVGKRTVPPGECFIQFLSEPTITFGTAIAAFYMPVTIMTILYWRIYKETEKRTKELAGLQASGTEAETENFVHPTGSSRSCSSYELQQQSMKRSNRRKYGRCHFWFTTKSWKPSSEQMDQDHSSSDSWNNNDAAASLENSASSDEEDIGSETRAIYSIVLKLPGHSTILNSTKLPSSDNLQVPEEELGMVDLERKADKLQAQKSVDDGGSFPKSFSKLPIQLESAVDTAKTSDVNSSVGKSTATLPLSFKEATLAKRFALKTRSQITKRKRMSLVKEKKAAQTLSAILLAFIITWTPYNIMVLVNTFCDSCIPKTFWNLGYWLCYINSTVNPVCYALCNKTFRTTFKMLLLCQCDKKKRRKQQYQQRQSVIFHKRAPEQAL
Muscarinic acetylcholine receptor M3 (Rattus norvegicus, UniProt P08483), sequence (P08483 whole entry): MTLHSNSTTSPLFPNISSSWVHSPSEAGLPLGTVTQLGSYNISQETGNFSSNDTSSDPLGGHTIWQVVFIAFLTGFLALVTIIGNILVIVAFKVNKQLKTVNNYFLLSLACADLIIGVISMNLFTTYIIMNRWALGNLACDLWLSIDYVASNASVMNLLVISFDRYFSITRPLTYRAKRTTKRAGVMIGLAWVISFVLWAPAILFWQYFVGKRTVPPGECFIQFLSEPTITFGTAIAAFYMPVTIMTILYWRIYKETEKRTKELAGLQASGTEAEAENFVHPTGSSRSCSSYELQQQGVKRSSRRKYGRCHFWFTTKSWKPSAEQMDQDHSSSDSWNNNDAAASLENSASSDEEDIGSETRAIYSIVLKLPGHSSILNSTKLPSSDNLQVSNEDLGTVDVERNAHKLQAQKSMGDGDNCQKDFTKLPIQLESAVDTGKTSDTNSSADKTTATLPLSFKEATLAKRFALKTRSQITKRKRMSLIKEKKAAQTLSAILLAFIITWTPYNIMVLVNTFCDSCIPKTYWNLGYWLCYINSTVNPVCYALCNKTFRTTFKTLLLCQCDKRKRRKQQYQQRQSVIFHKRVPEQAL
Muscarinic acetylcholine receptor M2 (Rattus norvegicus, UniProt P10980), sequence (P10980 whole entry): as the sequence (P10980 whole entry) above
Muscarinic acetylcholine receptor M5 (Rattus norvegicus, UniProt P08911), sequence (P08911 whole entry): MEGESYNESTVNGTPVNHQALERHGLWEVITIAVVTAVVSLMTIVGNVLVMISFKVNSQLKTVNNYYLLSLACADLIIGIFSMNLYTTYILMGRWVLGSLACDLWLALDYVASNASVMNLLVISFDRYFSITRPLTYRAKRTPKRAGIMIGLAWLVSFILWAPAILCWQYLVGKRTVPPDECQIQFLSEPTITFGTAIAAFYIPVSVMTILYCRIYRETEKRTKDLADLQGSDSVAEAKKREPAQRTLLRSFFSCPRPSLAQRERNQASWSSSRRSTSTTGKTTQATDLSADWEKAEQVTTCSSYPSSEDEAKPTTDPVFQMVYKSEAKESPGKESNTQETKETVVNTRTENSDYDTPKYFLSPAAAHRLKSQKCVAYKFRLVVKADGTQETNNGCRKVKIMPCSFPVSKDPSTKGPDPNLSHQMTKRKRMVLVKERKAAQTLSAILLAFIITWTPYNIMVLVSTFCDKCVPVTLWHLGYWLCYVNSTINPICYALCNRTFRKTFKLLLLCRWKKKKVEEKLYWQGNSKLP
Sodium-dependent dopamine transporter (Homo sapiens), sequence (Q01959 whole entry): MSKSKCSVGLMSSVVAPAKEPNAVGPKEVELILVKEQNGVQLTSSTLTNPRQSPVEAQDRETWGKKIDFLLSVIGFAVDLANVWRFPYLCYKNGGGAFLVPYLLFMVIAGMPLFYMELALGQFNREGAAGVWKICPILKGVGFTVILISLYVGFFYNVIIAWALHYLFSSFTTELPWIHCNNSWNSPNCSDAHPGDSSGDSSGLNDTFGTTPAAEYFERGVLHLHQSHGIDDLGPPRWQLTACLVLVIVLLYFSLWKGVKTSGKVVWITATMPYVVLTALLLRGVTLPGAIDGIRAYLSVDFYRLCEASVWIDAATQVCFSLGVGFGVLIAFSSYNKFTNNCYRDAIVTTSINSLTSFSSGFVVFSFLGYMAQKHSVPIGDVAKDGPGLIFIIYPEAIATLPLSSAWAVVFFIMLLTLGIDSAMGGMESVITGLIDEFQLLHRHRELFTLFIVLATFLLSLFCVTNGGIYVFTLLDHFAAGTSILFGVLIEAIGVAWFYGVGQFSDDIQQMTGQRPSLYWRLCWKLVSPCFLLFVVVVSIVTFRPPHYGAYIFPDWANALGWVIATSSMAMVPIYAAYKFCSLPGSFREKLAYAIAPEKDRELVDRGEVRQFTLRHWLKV
Muscarinic acetylcholine receptor M1 (Homo sapiens), sequence (P11229 whole entry): as the sequence (P11229 whole entry) above

As to `Cc1nc2sc(C(=O)NC3CC3)c(N)c2c(C)c1Cl`, the EC50 is over 30000 nM in [1]; 147 nM in data set [2]; 77 nM in [3]; 970 nM in data set [7]; over 30000 nM in data set [10]; over 30000 nM in data set [11]. Also, the EC50 in data set [12] is 940 nM; in [16], 640 nM; in [17] it was 550 nM; in data set [18] it was over 30000 nM. Besides, the %max in data set [4] is 58%; in [6], 64%; in data set [8], 33%; in data set [13], 26%; in data set [15], 94%. The fold change (FC) was 224 in [5] and 54.1 in [9]. Moreover, the Fu stood at 1.1% in the data set on Plasma [14] and 6.4% in the data set with Plasma [19].
Take `Cc1cc(OCc2ccncc2)nc2sc(C(=O)NCc3cccc(F)c3F)c(N)c12`: the concentration giving a half-maximal response (EC50) in [2] came to 900 nM; in [3], 500 nM.
In the case of `Cc1nc2sc(C(=O)NCc3ccncc3)c(N)c2c(C)c1Cl`, the EC50 is over 30000 nM in [1]; 176 nM in data set [2]; 56 nM in data set [3]; over 30000 nM in data set [7]; over 30000 nM in data set [10]; over 30000 nM in [11]. The EC50 in data set [12], in data set [16], in data set [17] and in data set [18] was over 30000 nM throughout. Besides, the Activity in the data set with Rattus norvegicus [20] was 18.7%; with Rattus norvegicus [21], 47.9%; in the data set on Rattus norvegicus [26] it was 53.7%; with Rattus norvegicus [28], 25.7%; with Rattus norvegicus [31], 57.3%; with Rattus norvegicus [32], “Dose-dependent effect”. Besides, the Vd in data set [22] was determined as 2.6 L/kg. The MRT in data set [23] is 27.5 min. This compound registered an AUC in [24] of 175 ng·h/mL. For the same compound, the fold change (FC) in data set [5] is 106; in [9], 49.6. This compound also returned a clearance in [25] of 104 mL/min/kg. Also, the Drug uptake in the data set on Brain stood at 3410 ng/g. The same compound showed a half-life in data set [27] of 17.5 min. Moreover, in data set [15], the %max came to 94.1%. Moreover, the inhibition amounted to 74% in data set [29] and 64% in the data set filed under Rattus norvegicus [33]. This compound also showed an AUC at 6 h in data set [30] of 3880 ng·h/mL. Also, the Fu with Plasma [19] amounted to 1.7%.
`Cc1nc2sc(C(=O)NC3CCCCC3)c(N)c2c(C)c1Cl`: the EC50 in data set [3] was 226 nM. For the same compound, the %max in data set [15] stood at 41.4%.
The corresponding values for `Cc1nc2sc(C(=O)NC(C)c3ccccn3)c(N)c2c(C)c1Cl` (stereo not drawn) are 1370 nM and 51.1%.
Consider `Cc1nc2sc(C(=O)NCCc3ccccn3)c(N)c2c(C)c1Cl`, for which the EC50 in data set [3] came to 844 nM. For the same compound, in data set [15], the %max amounted to 61.7%.
The corresponding values for `Cc1nc2sc(C(=O)NCc3cccnc3)c(N)c2c(C)c1Cl` are 208 nM and 84.9%.

Values taken from ChEMBL document CHEMBL2311451, “Discovery of a selective M₄ positive allosteric modulator based on the 3-amino-thieno[2,3-b]pyridine-2-carboxamide scaffold: development of ML253, a potent and brain penetrant compound that is active in a preclinical model of schizophrenia” (Bioorg Med Chem Lett, 2013).
